For one test, the target named is T1, Recombinant IDO (Homo sapiens, UniProt P14902).
T1 construct: Recombinant TDO or IDO was diluted to 16 ng/uL and 50 uL loaded into wells of a 96-well plate
The test is described as follows: IDO Inhibition Assay (recombinant enzyme, absorbance at 321 nm). In kind it is biochemical. The conditions noted are these: for activity at 1 µM: 1 μM test compound, read-out: IDO Inhibition Assay Screening (Activity, %) 1 μM; for activity at 10 µM: read-out: IDO Inhibition Assay Screening (Activity, %) 10 μM. On the procedure:
Inhibition of IDO by TDO/IDO test inhibitors was assessed in vitro. […] Recombinant TDO or IDO was diluted to 16 ng/uL and 50 uL loaded into wells of a 96-well plate. The reaction was started by the addition of 50 uL substrate mixture. […] The rate of increase of absorbance measured in the absence of a TDO/IDO inhibitor is taken as the maximum rate of enzymatic activity.

In a further test the target is T2, Recombinant TDO (Homo sapiens, UniProt P48775).
T2 construct: Recombinant TDO or IDO was diluted to 16 ng/uL and 50 uL loaded into wells of a 96-well plate
T2 sequence (P48775 whole entry): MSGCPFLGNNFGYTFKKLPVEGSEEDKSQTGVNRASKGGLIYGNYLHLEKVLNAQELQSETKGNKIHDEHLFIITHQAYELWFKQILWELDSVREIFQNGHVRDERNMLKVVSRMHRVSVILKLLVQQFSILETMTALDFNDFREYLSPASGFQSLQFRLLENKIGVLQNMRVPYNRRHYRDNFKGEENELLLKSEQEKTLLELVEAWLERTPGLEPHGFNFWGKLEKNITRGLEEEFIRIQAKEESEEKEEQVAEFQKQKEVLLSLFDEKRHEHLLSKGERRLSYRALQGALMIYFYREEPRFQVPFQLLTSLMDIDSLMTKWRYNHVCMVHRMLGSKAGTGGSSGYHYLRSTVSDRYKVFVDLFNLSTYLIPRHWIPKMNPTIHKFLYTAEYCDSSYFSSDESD
The test is described as follows: TDO Inhibition Assay (recombinant enzyme, absorbance at 321 nm). The conditions noted are these: for activity at 1 µM: 1 μM test compound, read-out: TDO Inhibition Assay Screening (Activity, %) 1 μM; for activity at 10 µM: read-out: TDO Inhibition Assay Screening (Activity, %) 10 μM. The test is classed as biochemical. On the procedure:
Inhibition of IDO by TDO/IDO test inhibitors was assessed in vitro. A substrate mixture was prepared by mixing equal volumes of 80 mM ascorbic acid diluted in 0.405 M Tris, pH 8.0 and a mixture of […] L-tryptophan, 9,000 units/mL catalase and 40 uM methyene blue. Recombinant TDO or IDO was diluted to 16 ng/uL and 50 uL loaded into wells of a 96-well plate. The reaction was started by the addition of 50 uL substrate mixture. The plate was read in kinetic mode at 321 nm for 5 minutes. The rate of increase of absorbance measured in the absence of a TDO/IDO inhibitor is taken as the maximum rate of enzymatic activity.

The next test concerns CT26 (murine colon). The test is described as follows: Cancer cell cytotoxicity, CellTiter-Glo Luminescent Cell Viability Assay. The conditions noted are these: Mus musculus, CT26, read-out: IC50 (μM) cancer cell cytotoxicity. Background: ATP-based viability assays read luminescence as a measure of living cells.
Test [1] has as its system HuT78 (human CTCL cell line). The test is described as above. The conditions noted are these: HuT78, read-out: IC50 (μM) cancer cell cytotoxicity.
Procedure: (§1) TDO/IDO test compounds were incubated with various cancer cell lines to determine the effect of the test compounds on cancer cell death. The CellTiter-Glo Luminescent Cell Viability Assay was used to determine cell cytotoxicity by determining the number of viable cells in culture based on quantitation of ATP, which signals the presence of metabolically active cells.
Test [2] relates to U87MG (human glioblastoma). The description is as above. Conditions: U-87 MG, read-out: IC50 (μM) cancer cell cytotoxicity.
Procedure: as §1
Test [3] has as its system Pano2 (murine pancreatic). Described as above. Conditions: Mus musculus, PanO2, read-out: IC50 (μM) cancer cell cytotoxicity.
Procedure: as §1
A further test has as its system GL261 (murine glioma). The description is as above. The conditions noted are these: Mus musculus, GL261, read-out: IC50 (μM) cancer cell cytotoxicity.
For test [4], the system named is HT29 (human colorectal adenocarcinoma). The test is described as above. Conditions: HT-29, read-out: IC50 (μM) cancer cell cytotoxicity.
Procedure: as §1
Test [5] concerns SCC4 (human squamous cell carcinoma). The test is described as above. Conditions: SCC-4, read-out: IC50 (μM) cancer cell cytotoxicity.
Procedure: as §1
Where [6] appears, read: 10 μM test compound, remaining enzyme activity.
[7] abbreviates: read-out: TDO Inhibition Assay Dose Resp. (IC50).
Where [8] appears, read: read-out: IDO Inhibition Assay Dose Resp. (IC50).

Like-named read-outs stand apart in the source and are kept apart here.

Results on 13 compounds are retold here after patent US20160361298A1, “METHODS AND COMPOSITIONS FOR TREATING CANCER” (Globavir BioSciences, Inc., priority 2015, published 2016).

T1 sequence (P14902 whole entry): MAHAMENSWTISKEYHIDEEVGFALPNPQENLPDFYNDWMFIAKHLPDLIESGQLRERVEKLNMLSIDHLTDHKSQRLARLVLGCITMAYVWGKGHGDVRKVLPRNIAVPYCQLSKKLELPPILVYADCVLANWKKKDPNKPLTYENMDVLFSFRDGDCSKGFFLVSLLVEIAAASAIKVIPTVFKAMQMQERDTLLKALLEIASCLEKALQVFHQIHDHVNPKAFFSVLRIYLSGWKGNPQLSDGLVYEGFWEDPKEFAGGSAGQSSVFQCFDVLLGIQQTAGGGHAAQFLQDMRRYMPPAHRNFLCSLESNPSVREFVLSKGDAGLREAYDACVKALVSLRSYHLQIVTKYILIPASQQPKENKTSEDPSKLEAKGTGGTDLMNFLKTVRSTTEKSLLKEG
Procedure for CT26 (murine colon): as §1
Procedure for GL261 (murine glioma): as §1

For the compound `O=C(Nc1ccc([N+](=O)[O-])cc1Cl)c1cc(Cl)ccc1O` [Niclosamide], the activity at 1 µM on Recombinant IDO (remaining enzyme activity) was determined as 84%; at Recombinant TDO (remaining enzyme activity) it was 82%. Further, the activity at 10 µM on Recombinant IDO (setting [6]) stood at 75%; at Recombinant TDO (setting [6]), 62%.
As usually defined, the IC50 is the point on the concentration scale where inhibition reaches its midpoint. For the compound `CC1=NN(c2ccc(C)c(C)c2)C(=O)/C1=N\Nc1cccc(-c2cccc(C(=O)O)c2)c1O` [Eltrombopag], the activity at 10 µM came out at 83% on Recombinant IDO (setting [6]) and 5% at Recombinant TDO (setting [6]). Moreover, the IC50 at Recombinant TDO (setting [7]) turned out to be 1.05 µM.
As to `Clc1ccc(C(Cn2ccnc2)OCc2csc3c(Cl)cccc23)c(Cl)c1` (stereo not shown) [Sertaconazole], the IC50 at Recombinant IDO came to 8.25 µM; in the test with CT26 (murine colon), 10.9 µM; in test [1], 17.7 µM; at Recombinant TDO (setting [7]) it was 4.07 µM; in test [2], 13.9 µM; in test [3], 16.1 µM. Further, the half-inhibitory concentration (IC50) is 30.1 µM in the test on GL261 (murine glioma) and 11.9 µM in test [4]. Moreover, the activity at 1 µM on Recombinant IDO (remaining enzyme activity) is 63%; on Recombinant TDO (remaining enzyme activity), 74%. Besides, the activity at 10 µM at Recombinant IDO (setting [6]) is 37%; on Recombinant TDO (setting [6]), 15%.
In the case of `Clc1ccc(COC(Cn2ccnc2)c2ccc(Cl)cc2Cl)c(Cl)c1` (stereo not shown) [Miconazole], the results for the IC50 at Recombinant IDO and at Recombinant TDO (setting [7]) were 4.69 µM and 3.7 µM, respectively. Also, the activity at 1 µM at Recombinant IDO (remaining enzyme activity) amounted to 67%; at Recombinant TDO (remaining enzyme activity), 74%. The activity at 10 µM at Recombinant IDO (setting [6]) was 27%; at Recombinant TDO (setting [6]) it was 16%.
`Clc1ccc(C(Cn2ccnc2)OCc2ccc(Sc3ccccc3)cc2)c(Cl)c1` (stereo not shown) [Fenticonazole]: the activity at 1 µM on Recombinant IDO (remaining enzyme activity) was 85%; on Recombinant TDO (remaining enzyme activity), 89%. Also, the activity at 10 µM at Recombinant IDO (setting [6]) is 56%; on Recombinant TDO (setting [6]), -34%. Also, the IC50 came out at 7.6 µM in the test on CT26 (murine colon); 9.16 µM in test [1]; 2.73 µM on Recombinant TDO (setting [7]); 78.8 µM in [5]; 15.6 µM in [2]; 16.1 µM in test [3]. The IC50 with GL261 (murine glioma) worked out at 15.2 µM; in test [4], 13.9 µM.
Take `Clc1cccc(C(c2ccc3[nH]cnc3c2)n2ccnc2)c1` (stereo not shown) [Liarozole]: the results for the activity at 1 µM on Recombinant IDO (remaining enzyme activity) and at Recombinant TDO (remaining enzyme activity) were 99% and 89%, respectively. Moreover, the figures for the activity at 10 µM on Recombinant IDO (setting [6]) and on Recombinant TDO (setting [6]) were 88% and 43%, respectively. Besides, the IC50 came out at 63.4 µM at Recombinant IDO (setting [8]) and 9.33 µM at Recombinant TDO (setting [7]).
Consider `C=C(c1ccccc1OCc1cccc(Cl)c1)n1ccnc1` [Cloconazole], for which the activity at 10 µM on Recombinant IDO came out at 76%; on Recombinant TDO, 5%. The IC50 came out at 8.06 µM in the test on CT26 (murine colon); 19.4 µM in test [1]; 0.532 µM on Recombinant TDO (setting [7]); 46.2 µM in test [5]; 26.7 µM in [2]; 9.61 µM in [3]. The half-inhibitory concentration (IC50) in the test with GL261 (murine glioma) amounted to 20.3 µM; in test [4], 10.7 µM.
Take `Clc1ccc(C(Cn2ccnc2)OCc2c(Cl)cccc2Cl)c(Cl)c1` (stereo not shown) [Isoconazole]: the concentration for half-maximal inhibition (IC50) at Recombinant IDO was determined as 14.6 µM; with CT26 (murine colon), 14.8 µM; in [1] it was 15.7 µM; on Recombinant TDO, 4.12 µM; in test [5], 83.8 µM; in test [2] it was 63.9 µM. Also, the IC50 came out at 12.6 µM in [3], 15.6 µM in the test on GL261 (murine glioma) and 14.8 µM in test [4]. Moreover, the activity at 1 µM at Recombinant IDO (remaining enzyme activity) amounted to 76%; on Recombinant TDO (remaining enzyme activity), 58%. Moreover, the activity at 10 µM was 53% on Recombinant IDO (setting [6]) and 17% at Recombinant TDO (setting [6]).
`Clc1ccc(C(Cn2ccnc2)OCc2ccsc2Cl)c(Cl)c1` (stereo not shown) [Tioconazole]: the activity at 1 µM at Recombinant IDO (remaining enzyme activity) was determined as 76%; at Recombinant TDO (remaining enzyme activity), 83%. The activity at 10 µM was found to be 47% at Recombinant IDO (setting [6]) and 28% at Recombinant TDO (setting [6]). Further, the 50% inhibitory concentration (IC50) on Recombinant IDO (setting [8]) was determined as 9.33 µM; with CT26 (murine colon), 14 µM; in test [1], 12.1 µM; on Recombinant TDO (setting [7]), 4.16 µM; in test [5], 28.2 µM; in [2], 26.1 µM. Further, the figures for the IC50 (in [3]; in the test on GL261 (murine glioma); in test [4]) were 22.2 µM, 27 µM and 18.2 µM, respectively.
Consider `Clc1ccc(COC(Cn2ccnc2)c2ccc(Cl)cc2Cl)cc1` (stereo not shown) [Econazole], for which the 50% inhibitory concentration (IC50) on Recombinant IDO turned out to be 4.91 µM; at Recombinant TDO (setting [7]) it was 5.35 µM. Further, the activity at 1 µM is 71% at Recombinant IDO (remaining enzyme activity) and 80% at Recombinant TDO (remaining enzyme activity). The activity at 10 µM amounted to 28% on Recombinant IDO (setting [6]) and 20% at Recombinant TDO (setting [6]).
As for `O=C(O)c1ccc(-n2nc(-c3ccccc3O)nc2-c2ccccc2O)cc1` [Deferasirox], the results for the activity at 1 µM at Recombinant IDO (remaining enzyme activity) and on Recombinant TDO (remaining enzyme activity) were 90% and 107%, respectively. Besides, the values for the activity at 10 µM on Recombinant IDO (setting [6]) and at Recombinant TDO (setting [6]) were 85% and 69%, respectively.
`NS(=O)(=O)NCCNc1nonc1C(=NO)Nc1ccc(F)c(Br)c1` [INCB024360]: the half-inhibitory concentration (IC50) in the test on CT26 (murine colon) is 69.9 µM; in test [1] it was 72.5 µM; in test [3], 53.5 µM; in the test with GL261 (murine glioma), 48.9 µM; in [4], 53.7 µM.
As for `CCC(C)n1ncn(-c2ccc(N3CCN(c4ccc(OCC5COC(Cn6cncn6)(c6ccc(Cl)cc6Cl)O5)cc4)CC3)cc2)c1=O` (stereo not shown) [Itraconazole], the values for the activity at 1 µM on Recombinant IDO (remaining enzyme activity) and at Recombinant TDO (remaining enzyme activity) were 72% and 93%, respectively. Also, the figures for the activity at 10 µM on Recombinant IDO (setting [6]) and at Recombinant TDO (setting [6]) were 56% and 82%, respectively. Moreover, the IC50 came out at 17.4 µM on Recombinant IDO (setting [8]) and 47 µM at Recombinant TDO (setting [7]).
